Source: PubChem BioAssay AID1963843 (Molecular Pharmacology Branch, DTP, NCI, 2024)

Tested on: 616215-338-R-J1-PDC complex spheroid viability
Test: Anticancer human tumor 616215-338-R-J1-PDC patient-derived colon adenocarcinoma cell line growth inhibition [POLQ]
Settings: for IC50: curve of first compound; for viability, T/C: stronger effect = lower value
Outline: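 Patient-derived tumour cells were co-cultured with HUVEC and mesenchymal stem cells as multicellular spheroids at 37 °C. They were treated with POLQ inhibitors (novobiocin, ART-558, RP6685) alone or combined with other agents. Top concentrations were at or near clinical Cmax (otherwise 10 microM; SN-38 at 1 microM), decreasing in half-log steps.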
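Note: spheroids exposed to compounds for one week before readout.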
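Throughout, for viability, T/C: percent viability relative to DMSO vehicle wells taken as 100%.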

Question: For CC(=O)O[C@H]1C(=O)[C@@]2(C)[C@H]([C@H](OC(=O)c3ccccc3)[C@]3(O)C[C@H](OC(=O)[C@H](O)[C@@H](NC(=O)c4ccccc4)c4ccccc4)C(C)=C1C3(C)C)[C@]1(OC(C)=O)CO[C@@H]1C[C@@H]2O + Cc1cccc(N(C)C(=O)C2C(O)CCN2c2nc(C)cc(C(F)(F)F)c2C#N)c1, which IC50 (second compound 0.0316 µM) is on record?
Answer: The IC50 was < 0.00949 µM.

Question: And the IC50 (second compound 0.1 µM)?
Answer: Its IC50 is < 0.00949 µM.

Question: And the IC50 (second compound 0.316 µM)?
Answer: Its IC50 is < 0.00949 µM.

Question: And the IC50 (second compound 1 µM)?
Answer: Its IC50 is < 0.00949 µM.

Question: And the IC50 (second compound 3.16 µM)?
Answer: Its IC50 is < 0.00949 µM.

Question: And the IC50 (second compound 10 µM)?
Answer: The IC50 was < 0.00949 µM.

Question: What about the viability, T/C (second compound 0.0316 µM, first compound 0.00949 µM) of the same molecule?
Answer: Its viability, T/C is 34.7%.

Question: And the viability, T/C (second compound 0.0316 µM, first compound 0.03 µM)?
Answer: Its viability, T/C is 20.2%.

Question: And the viability, T/C (second compound 0.0316 µM, first compound 0.0949 µM)?
Answer: Its viability, T/C is 20.4%.

Question: What about the viability, T/C (second compound 0.0316 µM, first compound 0.3 µM) of the same molecule?
Answer: The viability, T/C was 18.9%.

Question: What about the viability, T/C (second compound 0.0316 µM, first compound 0.949 µM) of the same molecule?
Answer: Its viability, T/C is 19.3%.

Question: What about the viability, T/C (second compound 0.0316 µM, first compound 3 µM) of the same molecule?
Answer: Its viability, T/C is 19.1%.

Question: And the viability, T/C (second compound 0.1 µM, first compound 0.00949 µM)?
Answer: Its viability, T/C is 31.6%.

Question: And the viability, T/C (second compound 0.1 µM, first compound 0.03 µM)?
Answer: The viability, T/C was 22.5%.

Question: And the viability, T/C (second compound 0.1 µM, first compound 0.0949 µM)?
Answer: The viability, T/C was 17.3%.

Question: What about the viability, T/C (second compound 0.1 µM, first compound 0.3 µM) of the same molecule?
Answer: Its viability, T/C is 21.5%.

Question: What about the viability, T/C (second compound 0.1 µM, first compound 0.949 µM) of the same molecule?
Answer: The viability, T/C was 17.3%.

Question: And the viability, T/C (second compound 0.1 µM, first compound 3 µM)?
Answer: Its viability, T/C is 17.4%.

Question: What about the viability, T/C (second compound 0.316 µM, first compound 0.00949 µM) of the same molecule?
Answer: Its viability, T/C is 39.5%.

Question: What about the viability, T/C (second compound 0.316 µM, first compound 0.03 µM) of the same molecule?
Answer: Its viability, T/C is 23.8%.

Question: And the viability, T/C (second compound 0.316 µM, first compound 0.0949 µM)?
Answer: Its viability, T/C is 22.5%.

Question: What about the viability, T/C (second compound 0.316 µM, first compound 0.3 µM) of the same molecule?
Answer: Its viability, T/C is 15.8%.

Question: What about the viability, T/C (second compound 0.316 µM, first compound 0.949 µM) of the same molecule?
Answer: The viability, T/C was 17.7%.

Question: And the viability, T/C (second compound 0.316 µM, first compound 3 µM)?
Answer: Its viability, T/C is 16.4%.

Question: And the viability, T/C (second compound 1 µM, first compound 0.00949 µM)?
Answer: Its viability, T/C is 36%.

Question: And the viability, T/C (second compound 1 µM, first compound 0.03 µM)?
Answer: The viability, T/C was 27.6%.

Question: And the viability, T/C (second compound 1 µM, first compound 0.0949 µM)?
Answer: The viability, T/C was 22.1%.

Question: What about the viability, T/C (second compound 1 µM, first compound 0.3 µM) of the same molecule?
Answer: The viability, T/C was 13.1%.

Question: What about the viability, T/C (second compound 1 µM, first compound 0.949 µM) of the same molecule?
Answer: The viability, T/C was 19%.

Question: What about the viability, T/C (second compound 1 µM, first compound 3 µM) of the same molecule?
Answer: Its viability, T/C is 18.8%.

Question: What about the viability, T/C (second compound 3.16 µM, first compound 0.00949 µM) of the same molecule?
Answer: The viability, T/C was 40.9%.

Question: What about the viability, T/C (second compound 3.16 µM, first compound 0.03 µM) of the same molecule?
Answer: The viability, T/C was 21.6%.

Question: What about the viability, T/C (second compound 3.16 µM, first compound 0.0949 µM) of the same molecule?
Answer: Its viability, T/C is 23.9%.

Question: And the viability, T/C (second compound 3.16 µM, first compound 0.3 µM)?
Answer: Its viability, T/C is 15.6%.

Question: What about the viability, T/C (second compound 3.16 µM, first compound 0.949 µM) of the same molecule?
Answer: The viability, T/C was 21.7%.

Question: What about the viability, T/C (second compound 3.16 µM, first compound 3 µM) of the same molecule?
Answer: The viability, T/C was 17.4%.

Question: What about the viability, T/C (second compound 10 µM, first compound 0.00949 µM) of the same molecule?
Answer: Its viability, T/C is 33.5%.

Question: What about the viability, T/C (second compound 10 µM, first compound 0.03 µM) of the same molecule?
Answer: The viability, T/C was 26.9%.

Question: And the viability, T/C (second compound 10 µM, first compound 0.0949 µM)?
Answer: The viability, T/C was 21.2%.

Question: What about the viability, T/C (second compound 10 µM, first compound 0.3 µM) of the same molecule?
Answer: Its viability, T/C is 14.6%.

Question: What about the viability, T/C (second compound 10 µM, first compound 0.949 µM) of the same molecule?
Answer: Its viability, T/C is 21.6%.

Question: What about the viability, T/C (second compound 10 µM, first compound 3 µM) of the same molecule?
Answer: The viability, T/C was 14.6%.

Question: With CC[C@@]1(O)C(=O)OCc2c1cc1n(c2=O)Cc2cc3c(CN(C)C)c(O)ccc3nc2-1 + Cc1cccc(N(C)C(=O)C2C(O)CCN2c2nc(C)cc(C(F)(F)F)c2C#N)c1 as the molecule, how does the IC50 (second compound 0.0316 µM) read?
Answer: The IC50 was > 0.1 µM.

Question: And the IC50 (second compound 0.1 µM)?
Answer: The IC50 was > 0.1 µM.

Question: What about the IC50 (second compound 0.316 µM) of the same molecule?
Answer: The IC50 was > 0.1 µM.

Question: And the IC50 (second compound 1 µM)?
Answer: Its IC50 is > 0.1 µM.

Question: What about the IC50 (second compound 3.16 µM) of the same molecule?
Answer: The IC50 was > 0.1 µM.

Question: What about the IC50 (second compound 10 µM) of the same molecule?
Answer: The IC50 was > 0.1 µM.

Question: And the viability, T/C (second compound 0.0316 µM, first compound 0.000316 µM)?
Answer: Its viability, T/C is 96.5%.

Question: What about the viability, T/C (second compound 0.0316 µM, first compound 0.001 µM) of the same molecule?
Answer: The viability, T/C was 100%.

Question: And the viability, T/C (second compound 0.0316 µM, first compound 0.00316 µM)?
Answer: Its viability, T/C is 97.7%.

Question: And the viability, T/C (second compound 0.0316 µM, first compound 0.01 µM)?
Answer: The viability, T/C was 101%.

Question: What about the viability, T/C (second compound 0.0316 µM, first compound 0.0316 µM) of the same molecule?
Answer: The viability, T/C was 105%.

Question: And the viability, T/C (second compound 0.0316 µM, first compound 0.1 µM)?
Answer: The viability, T/C was 82.5%.

Question: What about the viability, T/C (second compound 0.1 µM, first compound 0.000316 µM) of the same molecule?
Answer: Its viability, T/C is 99.2%.

Question: And the viability, T/C (second compound 0.1 µM, first compound 0.001 µM)?
Answer: The viability, T/C was 101%.

Question: And the viability, T/C (second compound 0.1 µM, first compound 0.00316 µM)?
Answer: Its viability, T/C is 101%.

Question: And the viability, T/C (second compound 0.1 µM, first compound 0.01 µM)?
Answer: The viability, T/C was 116%.

Question: And the viability, T/C (second compound 0.1 µM, first compound 0.0316 µM)?
Answer: Its viability, T/C is 107%.

Question: And the viability, T/C (second compound 0.1 µM, first compound 0.1 µM)?
Answer: Its viability, T/C is 79.6%.

Question: What about the viability, T/C (second compound 0.316 µM, first compound 0.000316 µM) of the same molecule?
Answer: Its viability, T/C is 114%.

Question: And the viability, T/C (second compound 0.316 µM, first compound 0.001 µM)?
Answer: The viability, T/C was 104%.

Question: What about the viability, T/C (second compound 0.316 µM, first compound 0.00316 µM) of the same molecule?
Answer: The viability, T/C was 92.3%.

Question: And the viability, T/C (second compound 0.316 µM, first compound 0.01 µM)?
Answer: The viability, T/C was 114%.

Question: And the viability, T/C (second compound 0.316 µM, first compound 0.0316 µM)?
Answer: Its viability, T/C is 96.7%.

Question: What about the viability, T/C (second compound 0.316 µM, first compound 0.1 µM) of the same molecule?
Answer: Its viability, T/C is 84.3%.

Question: And the viability, T/C (second compound 1 µM, first compound 0.000316 µM)?
Answer: The viability, T/C was 101%.

Question: What about the viability, T/C (second compound 1 µM, first compound 0.001 µM) of the same molecule?
Answer: Its viability, T/C is 93.5%.

Question: And the viability, T/C (second compound 1 µM, first compound 0.00316 µM)?
Answer: Its viability, T/C is 112%.

Question: What about the viability, T/C (second compound 1 µM, first compound 0.01 µM) of the same molecule?
Answer: Its viability, T/C is 112%.

Question: And the viability, T/C (second compound 1 µM, first compound 0.0316 µM)?
Answer: Its viability, T/C is 103%.

Question: And the viability, T/C (second compound 1 µM, first compound 0.1 µM)?
Answer: Its viability, T/C is 77.2%.

Question: And the viability, T/C (second compound 3.16 µM, first compound 0.000316 µM)?
Answer: Its viability, T/C is 101%.

Question: And the viability, T/C (second compound 3.16 µM, first compound 0.001 µM)?
Answer: The viability, T/C was 94.2%.

Question: What about the viability, T/C (second compound 3.16 µM, first compound 0.00316 µM) of the same molecule?
Answer: The viability, T/C was 93.2%.

Question: And the viability, T/C (second compound 3.16 µM, first compound 0.01 µM)?
Answer: The viability, T/C was 101%.

Question: And the viability, T/C (second compound 3.16 µM, first compound 0.0316 µM)?
Answer: Its viability, T/C is 103%.

Question: What about the viability, T/C (second compound 3.16 µM, first compound 0.1 µM) of the same molecule?
Answer: The viability, T/C was 78.8%.

Question: What about the viability, T/C (second compound 10 µM, first compound 0.000316 µM) of the same molecule?
Answer: The viability, T/C was 100%.

Question: And the viability, T/C (second compound 10 µM, first compound 0.001 µM)?
Answer: The viability, T/C was 98.9%.

Question: What about the viability, T/C (second compound 10 µM, first compound 0.00316 µM) of the same molecule?
Answer: The viability, T/C was 95.3%.

Question: And the viability, T/C (second compound 10 µM, first compound 0.01 µM)?
Answer: Its viability, T/C is 103%.

Question: And the viability, T/C (second compound 10 µM, first compound 0.0316 µM)?
Answer: Its viability, T/C is 97.8%.

Question: And the viability, T/C (second compound 10 µM, first compound 0.1 µM)?
Answer: Its viability, T/C is 64.4%.
